This is an account of results in PMC3157017 (Theranostics, 2011).

This test deals with integrin αvβ3 (Homo sapiens, UniProt P05106+P06756). The experiment in a line: Whole-cell integrin αvβ3 competitive displacement assay against ^125I-c. Type of test: binding.

As a reminder, the IC50 is the point on the concentration scale where inhibition reaches its midpoint. Read a low IC50 as inhibition by little substance. Regarding `N=C(N)NCCC[C@@H]1NC(=O)[C@H](CCCCNC(=O)CCOCCOCCOCCOCCNC(=O)CN2CCN(CC(=O)O)CCN(CC(=O)O)CCN(CC(=O)O)CC2)NC(=O)[C@@H](Cc2ccccc2)NC(=O)[C@H](CC(=O)O)NC(=O)CNC1=O` [DOTA-P-RGD, DOTA-PEG4-c(RGDfK)], the half-inhibitory concentration (IC50) is 44.3 ± 3.5 nM.
